Test results from EP4768484A1, “HETEROCYCLIC FUSED RING COMPOUND, AND COMPOSITION AND USE THEREOF” (Shenzhen TargetRx, Inc., priority 2023, dated 2025).
pIC50: −log10 of the molar value.

What was measured:
Type in all cases: cell-based
K562 cells = assay: Cell growth inhibitory activity assay (CellTiter-Glo), K562 cells; conditions: Homo sapiens, 72 h, CTG cell viability
How it was run: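 K562 cells in logarithmic growth were counted, diluted and plated in 96-well plates, with medium-only blanks and a separate T0 plate read by CTG the following day. After overnight incubation, graded compound concentrations were added for 72 h, with 0.5% DMSO wells as growth controls. Luminescence was read on a Biotek cytation3.0, and IC50 came from nonlinear fitting in GraphPad Prism 7.0.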

Ba/F3 BCR-ABL1 WT = target: T1, Ba/F3 BCR-ABL1 WT (Homo sapiens, UniProt P00519+P11274); assay: Cell growth inhibitory activity assay (CellTiter-Glo), Ba/F3 BCR-ABL1 WT cells; conditions: 72 h, CTG cell viability
T1 construct: BCR (N-terminal fusion partner of the oncoprotein); expressed in transfected cells; host or cells: Ba/F3 (lentiviral transduction, monoclonal line)
How it was run: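 Ba/F3 lines stably transduced by lentivirus with WT or mutant BCR-ABL1, alongside untransduced parental Ba/F3, were seeded and incubated overnight at 37 °C, 5% CO2, then exposed to serially diluted compound for 72 h. Viability was read as ATP by CellTiter-Glo luminescence against a day-of-dosing T0 plate; IC50 from four-parameter nonlinear fit.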

Ba/F3 BCR-ABL1 T315I = target: T2, Ba/F3 BCR-ABL1 T315I (Homo sapiens, UniProt P00519+P11274, T315I); assay: Cell growth inhibitory activity assay (CellTiter-Glo), Ba/F3 BCR-ABL1 T315I cells; conditions: 72 h, CTG cell viability
T2 construct: BCR (N-terminal fusion partner of the oncoprotein); expressed in transfected cells; host or cells: Ba/F3 (lentiviral transduction, monoclonal line)
How it was run: (§1)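 IC50 values come from nonlinear fitting of % inhibition against log concentration, with viability taken as ATP content by CellTiter-Glo. Parental Ba/F3 or Ba/F3 monoclonal lines expressing lentivirally introduced mutant BCR-ABL1 were dosed for 72 h; controls included 0.5% DMSO wells and a T0 plate.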

Ba/F3 parental cells = assay: Cell growth inhibitory activity assay (CellTiter-Glo), Ba/F3 parental cells; conditions: Mus musculus, BaF3, 72 h, CTG cell viability, read-out: IC50 Ba/F3 BCR-ABL1 Parental
How it was run: as §1

Structure (SMILES) | pIC50 (K562 cells) | pIC50 (Ba/F3 BCR-ABL1 WT) | pIC50 (Ba/F3 BCR-ABL1 T315I) | pIC50 (Ba/F3 parental cells)
CC(C)n1cc2c(n1)-c1cc(-c3cc(C(=O)Nc4ccc(OC(F)(F)Cl)cc4)cnc3N3CC[C@@H](F)C3)cnc1C2 [T-10-B, (R)-N-(4-(chlorodifluoromethoxy)phenyl)-6-(3-fluoropyrrolidin-1-yl)-5-(2-isopropyl-2,4-dihydropyrazolo[3',4':3,4]cyclopenta[1,2-b]pyridin-7-yl)nicotinamide] | ≥ 8.30 | ≥ 8.30 | ≥ 8.30 | < 6.00
C[C@@H]1COCc2nc3cc(C(=O)Nc4ccc(OC(F)(F)Cl)cc4)cc(-c4cnc5c(c4)-c4c(cnn4-c4ncc6ccccc6n4)C5)c3n21 [T-82-A, (R)-N-(4-(chlorodifluoromethoxy)phenyl)-4-methyl-6-(1-(guinazolin-2-yl)-1,4-dihvdropyrazolo[3',4':3,4]cyclopenta[1,2-b]pyridin-7-yl)-3,4-dihydro-1H-benzo[4,5]imidazo[2,1-c][1,4]oxazine-8-carboxamide] | ≥ 8.30 | ≥ 8.30 | 7.30 to 8.30 | < 6.00
O=C(Nc1ccc(OC(F)(F)Cl)cc1)c1cnc(N2CC[C@@H](F)C2)c(-c2cnc3c(c2)-c2nn(-c4ncc(F)cn4)cc2C3)c1 [T-6-A, (R)-N-(4-(chlorodifluoromethoxy)phenyl)-5-(2-(5-fluoropyrimidin-2-yl)-2,4-dihydropyrazolo[3',4':3,4]cyclopenta[1,2-b]pyridin-7-yl)-6-(3-fluoropyrrolidin-1-yl)nicotinamide] | ≥ 8.30 | ≥ 8.30 | ≥ 8.30 | < 6.00
COc1ccc(-c2ccnc(-n3ncc4c3-c3cc(-c5cc(C(=O)Nc6ccc(OC(F)(F)Cl)cc6)cc6nc7n(c56)[C@H](C)COC7)cnc3C4)n2)cc1F [T-91-A, (R)-N-(4-(chlorodifluoromethoxy)phenyl)-6-(1-(4-(3-fluoro-4-methoxyphenyl)pyrimidin-2-yl)-1,4-dihydropyrazolo[3',4':3,4]cyclopenta[1,2-b]pyridin-7-yl)-4-methyl-3,4-dihydro-1H-benzo[4,5]imidazo[2,1-c][1,4]oxazine-8-carboxamide] | ≥ 8.30 | 7.30 to 8.30 | 6.00 to 7.30 | < 6.00
C[C@@H]1COCc2nc3cc(C(=O)Nc4ccc(OC(F)(F)Cl)cc4)cc(-c4cnc5c(c4)-c4nn(CCOC(C)(C)C)cc4C5)c3n21 [T-56-A, (R)-6-(2-(2-(tert-butoxy)ethyl)-2,4-dihydropyrazolo[3',4':3,4]cyclopenta[1,2-b]pyridin-7-yl)-N-(4-(chlorodifluoromethoxy)phenyl)-4-methyl-3,4-dihydro-1H-benzo[4,5]imidazo[2,1-c][1,4]oxazine-8-carboxamide] | 7.30 to 8.30 | 6.00 to 7.30 | < 6.00 | < 6.00

Continued, in another order:

pIC50 (K562 cells) | Structure (SMILES) | pIC50 (Ba/F3 BCR-ABL1 WT) | pIC50 (Ba/F3 BCR-ABL1 T315I) | pIC50 (Ba/F3 parental cells)
≥ 8.30 | O=C(Nc1ccc(OC(F)(F)Cl)cc1)c1cnc(N2CC[C@@H](F)C2)c(-c2cnc3c(c2)-c2nn(-c4nccc(-c5cccnc5)n4)cc2C3)c1 [T-9, (R)-N-(4-(chlorodifluoromethoxy)phenyl)-6-(3-fluoropyrrolidin-1-yl)-5-(2-(4-(pyridin-3-yl)pyrimidin-2-yl)-2,4-dihydropyrazolo[3',4':3,4]cyclopenta[1,2-b]pyridin-7-yl)nicotinamide] | ≥ 8.30 | ≥ 8.30 | < 6.00
≥ 8.30 | CC1(C)C(=O)Nc2cc(C(=O)Nc3ccc(OC(F)(F)Cl)cc3)cc(-c3cnc4c(c3)-c3nn(-c5ncc(F)cn5)cc3C4)c21 [T-124, N-(4-(chlorodifluoromethoxy)phenyl)-4-(2-(5-fluoropyrimidin-2-yl)-2,4-dihydropyrazolo[3',4':3,4]cyclopenta[1,2-b]pyridin-7-yl)-3,3-dimethyl-2-oxoindoline-6-carboxamide] | ≥ 8.30 | ≥ 8.30 | < 6.00
≥ 8.30 | C[C@@H]1COCc2nc3cc(C(=O)Nc4ccc(OC(F)(F)Cl)cc4)cc(-c4ccc5c(c4)-c4n[nH]cc4C5)c3n21 [T-108, (R)-N-(4-(chlorodifluoromethoxy)phenyl)-6-(2,4-dihydroindeno[1,2-c]pyrazol-7-yl)-4-methyl-3,4-dihydro-1H-benzo[4,5]imidazo[2,1-c][1,4]xxazine-8-carboxamide] | ≥ 8.30 | < 6.00 | < 6.00
≥ 8.30 | C[C@@H]1COCc2nc3cc(C(=O)Nc4ccc(OC(F)(F)Cl)cc4)cc(-c4cnc5c(c4)-c4nn(-c6nccc(C(F)(F)F)n6)cc4C5)c3n21 [T-72, (R)-N-(4-(chlorodifluoromethoxy)phenyl)-4-methyl-6-(2-(4-(trifluoromethyl)pyrimidin-2-yl)-2,4-dihydropyrazolo[3',4':3,4]cyclopenta[1,2-b]pyridin-7-yl)-3,4-dihydro-1H-benzo[4,5]imidazo[2,1-c][1,4]oxazine-8-carboxamide] | ≥ 8.30 | ≥ 8.30 | < 6.00
≥ 8.30 | C[C@@H]1COCc2nc3cc(C(=O)Nc4ccc(OC(F)(F)Cl)cc4)cc(-c4cnc5c(c4)-c4nn(-c6nccc(-c7ccccc7)n6)cc4C5)c3n21 [T-81, (R)-N-(4-(chlorodifluoromethoxy)phenyl)-4-methyl-6-(2-(4-phenyloyrimidin-2-yl)-2,4-dihydropyrazolo[3',4':3,4]cyclopenta[1,2-b]pyridin-7-yl)-3,4-dihydro-1H-benzo[4,5]imidazo[2,1-c][1,4]oxazine-8-carboxamide] | ≥ 8.30 | ≥ 8.30 | < 6.00
≥ 8.30 | CN1Cc2ncc(-c3cc(C(=O)Nc4ccc(OC(F)(F)Cl)cc4)cc4c3C3(CCCCC3)C(=O)N4)cc2C1=O [T-8, N-(4-(chlorodifluoromethoxy)phenyl)-4'-(6-methyl-5-oxo-6,7-dihydro-5H-pyrrolo[3,4-b]pyridin-3-yl)-2'-oxospiro[cyclohexane-1,3'-indoline]-6'-carboxamide] | ≥ 8.30 | 7.30 to 8.30 | < 6.00
7.30 to 8.30 | CC(C)n1cnc2cc(C(=O)Nc3ccc(OC(F)(F)Cl)cc3)cc(-c3cnccn3)c21 [T-23, N-(4-(chlorodifluoromethoxy)phenyl)-1-isopropyl-7-(pyrazin-2-yl)-1H-benzo[d]imidazole-5-carboxamide] | ≥ 8.30 | 6.00 to 7.30 | < 6.00
≥ 8.30 | Cc1cc(C(F)(F)F)nc(-n2cc3c(n2)-c2cc(-c4cc(C(=O)Nc5ccc(OC(F)(F)Cl)cc5)cc5nc6n(c45)[C@H](C)COC6)cnc2C3)n1 [T-75, (R)-N-(4-(chlorodifluoromethoxy)phenyl)-4-methyl-6-(2-(4-methyl-6-(trifluoromethyl)pyrimidin-2-yl)-2,4-dihydropyrazolo[3',4':3,4]cyclopenta[1,2-b]pyridin-7-yl)-3,4-dihydro-1H-benzo[4,5]imidazo[2,1-c][1,4]oxazine-8-carboxamide] | ≥ 8.30 | ≥ 8.30 | < 6.00
≥ 8.30 | C[C@@H]1COCc2nc3cc(C(=O)Nc4ccc(OC(F)(F)Cl)cc4)cc(-c4cnc5c(c4)-c4nn(C(=O)C6CC6)cc4C5)c3n21 [T-47, (R)-N-(4-(chlorodifluoromethoxy)phenyl)-6-(2-(cyclopropylcarbonyl)-2,4-dihydropyrazolo[3',4':3,4]cyclopenta[1,2-b]pyridin-7-yl)-4-methyl-3,4-dihydro-1H-benzo[4,5]imidazo[2,1-c][1,4]oxazine-8-carboxamide] | ≥ 8.30 | ≥ 8.30 | < 6.00
